Measured values as given in ChEMBL document CHEMBL4627336, “Inhibitory effects of biseokeaniamide A against lipopolysaccharide-induced signal transduction” (Bioorg Med Chem Lett, 2020).
Each block holds one compound with its values, some of them ahead of it. Active and inactive are the calls of the source. The calls are words filed in the database; no cut-off is given here. Where a SMILES comes first, the peptide text is derived from it. Bridges are numbered along the chain shown (N, C = ends). [ ]: non-standard residue; d: D form. The star is where a group is joined. NMeF = CN[C@@H](Cc1ccccc1)C(=O)O; NMeV = CN[C@H](C(=O)O)C(C)C; X2 = CC[C@H](C)CCCCC(=O)*; dDab = NCC[C@@H](N)C(=O)O; Dab = NCC[C@H](N)C(=O)O; Butyryl = CCCC(=O)*; X1 = CN(Cc1nccs1)*

Assays:
RAW264.7 [1] = assay: Inhibition of LPS-induced degraded IkappaBalpha regeneration in mouse RAW264.7 cells at 10 uM measured upto 90 mins by Western blot analysis; format: functional, cell-based
RAW264.7 [2] = assay: Inhibition of LPS-induced IkappaBalpha degradation in mouse RAW264.7 cells at 1 to 30 uM incubated for 30 mins by Western blot analysis; format: functional, cell-based
RAW264.7 [3] = assay: Inhibition of LPS-induced iNOS expression in mouse RAW264.7 cells at preincubated for 1 hr followed by LPS stimulation and measured after 24 hrs by Western blot analysis; format: functional, cell-based
RAW264.7 [4] = assay: Inhibition of LPS-induced TNFalpha production in mouse RAW264.7 cells at 1 to 30 uM preincubated for 1 hr followed by LPS stimulation and measured after 24 hrs by ELISA; format: functional, cell-based
RAW264.7 [5] = assay: Inhibition of LPS-induced IL-6 production in mouse RAW264.7 cells at 1 to 30 uM preincubated for 1 hr followed by LPS stimulation and measured after 24 hrs by ELISA; format: functional, cell-based
RAW264.7 [6] = assay: Inhibition of LPS-induced IL-1beta production in mouse RAW264.7 cells preincubated for 1 hr followed by LPS stimulation and measured after 24 hrs by ELISA; format: functional, cell-based
RAW264.7 [7] = assay: Cytotoxicity against mouse RAW264.7 cells assessed as reduction in cell viability upto 30 uM incubated for 24 hrs in presence of LPS by MTT assay; format: cell-based; details: raw264.7, 24 h
RAW264.7 [8] = assay: Inhibition of LPS-induced NO production in mouse RAW264.7 cells preincubated for 1 hr followed by LPS stimulation and measured after 24 hrs by Griess reagent based assay; format: functional, cell-based
RAW264.7 [9] = assay: Inhibition of LPS-induced iNOS expression in mouse RAW264.7 cells at 1 uM preincubated for 1 hr followed by LPS stimulation and measured after 24 hrs by Western blot analysis relative to control; format: functional
RAW264.7 [10] = assay: Inhibition of LPS-induced IkappaBalpha degradation in mouse RAW264.7 cells at 1 uM incubated for 30 mins by Western blot analysis; format: functional, cell-based
RAW264.7 [11] = assay: Inhibition of LPS-induced TNFalpha production in mouse RAW264.7 cells at 1 uM preincubated for 1 hr followed by LPS stimulation and measured after 24 hrs by ELISA; format: functional, cell-based
RAW264.7 [12] = assay: Inhibition of LPS-induced IL-6 production in mouse RAW264.7 cells at 1 uM preincubated for 1 hr followed by LPS stimulation and measured after 24 hrs by ELISA; format: functional, cell-based
RAW264.7 [13] = assay: Inhibition of LPS-induced IL-1beta production in mouse RAW264.7 cells at 1 uM preincubated for 1 hr followed by LPS stimulation and measured after 24 hrs by ELISA; format: functional, cell-based
RAW264.7 [14] = assay: Inhibition of LPS-induced NO production in mouse RAW264.7 cells at 0.1 to 10 uM preincubated for 1 hr followed by LPS stimulation and measured after 24 hrs by Griess reagent based assay; format: functional, cell-based

IC50 (RAW264.7 [6]): 14.5 µM | IC50 (RAW264.7 [8]): 6.47 µM
SMILES: CCCC(=O)N(C)[C@H](C(=O)N1CCC[C@H]1C(=O)N(C)[C@@H](Cc1ccccc1)C(=O)N[C@@H](CC(C)C)C(=O)N(C)[C@H](C(=O)N(C)Cc1nccs1)C(C)C)C(C)C (Butyryl-[NMeV]P[NMeF]L[NMeV]-X1)
inhibition (RAW264.7 [1]): Active | inhibition (RAW264.7 [2]): inactive | inhibition (RAW264.7 [3]): Dose-dependent effect | inhibition (RAW264.7 [4]): inactive | inhibition (RAW264.7 [5]): inactive | inhibition (RAW264.7 [6]): Dose-dependent effect | Activity (RAW264.7 [7]): Non-Toxic | inhibition (RAW264.7 [8]): Dose-dependent effect

SMILES: CC[C@H](C)CCCCC(=O)N[C@@H](CCN)C(=O)N[C@H](C(=O)N[C@@H](CCN)C(=O)N[C@H]1CCNC(=O)[C@H]([C@@H](C)O)NC(=O)[C@H](CCN)NC(=O)[C@H](CCN)NC(=O)[C@H](CC(C)C)NC(=O)[C@@H](Cc2ccccc2)NC(=O)[C@H](CCN)NC1=O)[C@@H](C)O (X2-[Dab]T[Dab][Dab][Dab][dF]L[Dab][Dab]T; lactam 4-C)
inhibition at 1 µM (RAW264.7 [9]): 100%

SMILES: CC[C@H](C)CCCCC(=O)N[C@@H](CCN)C(=O)N[C@H](C(=O)N[C@@H](CCN)C(=O)N[C@H]1CCNC(=O)[C@H]([C@@H](C)O)NC(=O)[C@H](CCN)NC(=O)[C@H](CCN)NC(=O)[C@H](CC(C)C)NC(=O)[C@@H](Cc2ccccc2)NC(=O)[C@@H](CCN)NC1=O)[C@@H](C)O (X2-[Dab]T[Dab][Dab][dDab][dF]L[Dab][Dab]T; lactam 4-C)
inhibition (RAW264.7 [10]): Active | inhibition (RAW264.7 [11]): Active | inhibition (RAW264.7 [12]): Active | inhibition (RAW264.7 [13]): Active | inhibition (RAW264.7 [14]): Active
